From patent US9889113B2, “Method for reversing, preventing, delaying or stabilizing soft tissue calcification” (Panion & BF Biotech, Inc., priority 2006, dated 2018)

Assays:
[1] = test system: cornea calcification in end stage renal disease patients; assay: Cornea calcification by slit-lamp photographs and Image J analysis, Phase II and open-label extension; format: in vivo, human; conditions: for 1st eye test Calcified area on cornea (%): baseline
Description: Eye examinations were carried out by using a slit-lamp microscope which was connected to a digital camera (NIKON E995). Calcifications in the cornea occur close to the nasal and temporal sides of the corneal limbus and look like the band keratopathy of hypercalcemia. Observer photographed the inner side (close to nasal), outer side (close to temporal) or took a full view of the cornea where calcification was found (FIG. 6).
An image analysis software called “Image J” was used for data analysis. The image analysis software is developed to display, edit, analyze, process, save and print 8-bit, 16-bit and 32-bit images. It can calculate area and pixel value statistics of user-defined selections, measure distances and angles, and create density histograms and line profile plots. It supports standard image processing functions such as contrast manipulation, sharpening, smoothing, edge detection and median filtering. The software is developed at the Research Services Branch of the National Institute of Mental Health, an institute of the National Institutes of Health (NIH). The software can be downloaded from the NIH website.
The image analysis software is able to measure calcified area and total cornea area that are subjectively defined by the user. To estimate calcified area, the observer first loads the patient's eye picture on to the image software, crops the specific calcified region, and the software will measure the defined section accordingly (defined as how many pixels in that area). […] To estimate the size of the full cornea, the observer used the image software to crop a 90 degrees fan-shape area on the available cornea region on the picture subjectively, and then let the software calculate the size of this fan-shape area to represent ¼ of the full cornea. By multiply the number by four, the observer then got an estimate of total cornea area.
The severity of cornea calcification was evaluated based on the percentage of the cornea surface occupied by calcification, i.e. % inner side calcification+% outer side calcification, wherein inner or outer side calcification is calculated as (calcified area on inner or outer cornea/total cornea area)×100.
In this study, patients were referred to ophthalmic department for eye examination before and after ferric citrate treatment. All patients had their 1st eye examination few days before or on the first dosing day of the Phase II trial (baseline value for cornea calcification). The time for 2nd eye examination was varied. Some were examined right after the Phase II study and some were examined during the OLE period. Nonetheless, disregarding when the 2nd eye examination was taken, it must be obtained after a defined consecutive days of ferric citrate administration in order to be considered as valid value for determinating the effects of ferric citrate on the cornea calcification changes.
All patients from the ferric citrate Phase II clinical trial were followed with a drug free period for various length of time, and some patients then participated in the open-label extension treatment period. Each participating patients received two eye examinations performed by an ophthalmologist. Depending on the dates of the first and second eye examinations and the corresponding drug dosing period, not all participating patients can generate usable information. The accepted patients were those who had received consecutive dosing for at least 21 days. The period between the first and second eye examination was at least as long as the dosing period. The actual interval between the two eye examinations was not relevant for the purpose of this evaluation since the longer the time between the first and second eye examination, the higher the possibility of cornea calcification development, not the other way around. […]

[2] = test system: patients with end stage renal disease (ESRD) on hemodialysis; assay: Randomized, double-blind, placebo-controlled, dose-ranging study of ferric citrate on serum phosphate, Ca and Ca×PO4; format: in vivo, human; conditions: Day 28; 2, 4, 6 g/day TID vs placebo
[3] = 11 patients on active treatment (22 eye values)
[4] = Subject 2-01-1-002, Left eye, 2 g/day, treatment 28 days, interval between tests 61 days
[5] = Subject 2-01-1-002, Right eye, 2 g/day, treatment 28 days, interval between tests 61 days
[6] = Subject 2-01-1-004, Left eye, 6 g/day, treatment 28 days, interval between tests 78 days
[7] = Subject 2-01-1-004, Right eye, 6 g/day, treatment 28 days, interval between tests 78 days
[8] = Subject 2-01-1-006, Left eye, 6 g/day, treatment 28 days, interval between tests 50 days
[9] = Subject 2-01-1-006, Right eye, 6 g/day, treatment 28 days, interval between tests 50 days
[10] = Subject 2-01-1-009, Left eye, 4 g/day, treatment 28 days, interval between tests 50 days
[11] = Subject 2-01-1-009, Right eye, 4 g/day, treatment 28 days, interval between tests 50 days
[12] = Subject 2-01-1-012, Left eye, 2 g/day, treatment 28 days, interval between tests 66 days
[13] = Subject 2-01-1-012, Right eye, 2 g/day, treatment 28 days, interval between tests 66 days
[14] = Subject 2-01-1-018, Left eye, 6 g/day, treatment 28 days, interval between tests 75 days
[15] = Subject 2-01-1-018, Right eye, 6 g/day, treatment 28 days, interval between tests 75 days
[16] = Subject 2-01-1-022, Left eye, 6 g/day, treatment 57 days, interval between tests 217 days
[17] = Subject 2-01-1-022, Right eye, 6 g/day, treatment 57 days, interval between tests 217 days
[18] = Subject 2-01-1-042, Left eye, 6 g/day, treatment 42 days, interval between tests 199 days
[19] = Subject 2-01-1-042, Right eye, 6 g/day, treatment 42 days, interval between tests 199 days
[20] = Subject 2-01-1-048, Left eye, 4 g/day, treatment 28 days, interval between tests 186 days
[21] = Subject 2-01-1-048, Right eye, 4 g/day, treatment 28 days, interval between tests 186 days
[22] = Subject 2-01-1-050, Left eye, 6 g/day, treatment 33 days, interval between tests 198 days
[23] = Subject 2-01-1-050, Right eye, 6 g/day, treatment 33 days, interval between tests 198 days
[24] = Subject 2-01-1-068, Left eye, 6 g/day, treatment 34 days, interval between tests 202 days
[25] = Subject 2-01-1-068, Right eye, 6 g/day, treatment 34 days, interval between tests 202 days

O=C([O-])CC(O)(CC(=O)[O-])C(=O)[O-].[Fe+3] [ferric citrate]
average change of worsened eye cornea calcification values ([1]; 10 worsened eye values of 11 actively treated patients): +2.20% | average change of improved eye cornea calcification values ([1]; 11 improved eye values of 11 actively treated patients): −2.07% | number of eye cornea calcification values that exhibited improvement [1, 3]: 11 | number of eye cornea calcification values that remained unchanged [1, 3]: one | number of eye cornea calcification values that exhibited worsened results ([1]; 11 patients on active treatment (22 eye values), 2-6 g/day, 28 to 57 days): 10 | effect on cornea calcification conditions (overall) ([1]; ESRD patients, 2-6 g/day): appears to delay or improve cornea calcification conditions | cornea calcification after treatment (FIG. 10) ([1]; Patient ID 2-01-1-012, 2 g/day, treatment period 28 days): improved cornea calcification | 2nd eye test Calcified area on cornea (%) [1, 4]: 3.75% | Difference between 1st and 2nd tests (%) [1, 4]: −0.15% | 1st eye test Calcified area on cornea (%) [1, 4]: 3.90% | 2nd eye test Calcified area on cornea (%) [1, 5]: 0.00% | Difference between 1st and 2nd tests (%) [1, 5]: 0.00% | 1st eye test Calcified area on cornea (%) [1, 5]: 0.00% | 2nd eye test Calcified area on cornea (%) [1, 6]: 1.10% | Difference between 1st and 2nd tests (%) [1, 6]: −1.40% | 1st eye test Calcified area on cornea (%) [1, 6]: 2.50% | 2nd eye test Calcified area on cornea (%) [1, 7]: 2.20% | Difference between 1st and 2nd tests (%) [1, 7]: −2.18% | 1st eye test Calcified area on cornea (%) [1, 7]: 4.38% | 2nd eye test Calcified area on cornea (%) [1, 8]: 50.36% | Difference between 1st and 2nd tests (%) [1, 8]: −0.59% | 1st eye test Calcified area on cornea (%) [1, 8]: 50.95% | 2nd eye test Calcified area on cornea (%) [1, 9]: 29.27% | Difference between 1st and 2nd tests (%) [1, 9]: −3.16% | 1st eye test Calcified area on cornea (%) [1, 9]: 32.43% | 2nd eye test Calcified area on cornea (%) [1, 10]: 0.00% | Difference between 1st and 2nd tests (%) [1, 10]: −1.16% | 1st eye test Calcified area on cornea (%) [1, 10]: 1.16% | 2nd eye test Calcified area on cornea (%) [1, 11]: 1.00% | Difference between 1st and 2nd tests (%) [1, 11]: 0.49% | 1st eye test Calcified area on cornea (%) [1, 11]: 0.51% | 2nd eye test Calcified area on cornea (%) [1, 12]: 2.09% | Difference between 1st and 2nd tests (%) [1, 12]: −1.41% | 1st eye test Calcified area on cornea (%) [1, 12]: 3.50% | 2nd eye test Calcified area on cornea (%) [1, 13]: 4.69% | Difference between 1st and 2nd tests (%) [1, 13]: −10.21% | 1st eye test Calcified area on cornea (%) [1, 13]: 14.90% | 2nd eye test Calcified area on cornea (%) [1, 14]: 7.72% | Difference between 1st and 2nd tests (%) [1, 14]: 1.79% | 1st eye test Calcified area on cornea (%) [1, 14]: 5.93% | 2nd eye test Calcified area on cornea (%) [1, 15]: 38.86% | Difference between 1st and 2nd tests (%) [1, 15]: −1.99% | 1st eye test Calcified area on cornea (%) [1, 15]: 40.85% | 2nd eye test Calcified area on cornea (%) [1, 16]: 8.37% | Difference between 1st and 2nd tests (%) [1, 16]: 6.98% | 1st eye test Calcified area on cornea (%) [1, 16]: 1.39% | 2nd eye test Calcified area on cornea (%) [1, 17]: 7.29% | Difference between 1st and 2nd tests (%) [1, 17]: 0.08% | 1st eye test Calcified area on cornea (%) [1, 17]: 7.21% | 2nd eye test Calcified area on cornea (%) [1, 18]: 4.91% | Difference between 1st and 2nd tests (%) [1, 18]: 4.24% | 1st eye test Calcified area on cornea (%) [1, 18]: 0.67% | 2nd eye test Calcified area on cornea (%) [1, 19]: 3.73% | Difference between 1st and 2nd tests (%) [1, 19]: 3.24% | 1st eye test Calcified area on cornea (%) [1, 19]: 0.49% | 2nd eye test Calcified area on cornea (%) [1, 20]: 2.01% | Difference between 1st and 2nd tests (%) [1, 20]: 0.16% | 1st eye test Calcified area on cornea (%) [1, 20]: 1.85% | 2nd eye test Calcified area on cornea (%) [1, 21]: 2.09% | Difference between 1st and 2nd tests (%) [1, 21]: −0.41% | 1st eye test Calcified area on cornea (%) [1, 21]: 2.50% | 2nd eye test Calcified area on cornea (%) [1, 22]: 1.62% | Difference between 1st and 2nd tests (%) [1, 22]: 0.76% | 1st eye test Calcified area on cornea (%) [1, 22]: 0.86% | 2nd eye test Calcified area on cornea (%) [1, 23]: 1.54% | Difference between 1st and 2nd tests (%) [1, 23]: −0.08% | 1st eye test Calcified area on cornea (%) [1, 23]: 1.62% | 2nd eye test Calcified area on cornea (%) [1, 24]: 3.09% | Difference between 1st and 2nd tests (%) [1, 24]: 2.04% | 1st eye test Calcified area on cornea (%) [1, 24]: 1.05% | 2nd eye test Calcified area on cornea (%) [1, 25]: 2.24% | Difference between 1st and 2nd tests (%) [1, 25]: 2.24% | 1st eye test Calcified area on cornea (%) [1, 25]: 0.00% | Ca × PO4 (mg/dL)^2: Linear Regression P [2]: P = 0.0158
